Source: patent US11945822B2, “Pyrazolo-triazine and/or pyrazolo-pxrimidine derivatives as selective inhibitor of cyclin dependent kinase” (QURIENT CO., LTD., priority 2018, dated 2024)

Biological target: T1, CDK1/Cyclin B (Homo sapiens, UniProt P06493)
T1 construct: purchased Invitrogen PR4768C
Assay: Enzymatic assay for CDK1 (FRET based LANCE Ultra kinase assay)
Assay type: biochemical
Conditions: read-out: CDK1 enzymatic activity (IC50 range)
Method in brief: (§1)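 LANCE Ultra TR-FRET: ULight-MBP peptide (68 nM) with ATP at Km, […], 60 min at 23° C. EDTA plus Eu-anti-phospho-MBP added, another 60 min, then 665/615 nm emission read. Compounds tested as 8-dose 4-fold DMSO dilutions.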

T1 sequence (P06493 whole entry): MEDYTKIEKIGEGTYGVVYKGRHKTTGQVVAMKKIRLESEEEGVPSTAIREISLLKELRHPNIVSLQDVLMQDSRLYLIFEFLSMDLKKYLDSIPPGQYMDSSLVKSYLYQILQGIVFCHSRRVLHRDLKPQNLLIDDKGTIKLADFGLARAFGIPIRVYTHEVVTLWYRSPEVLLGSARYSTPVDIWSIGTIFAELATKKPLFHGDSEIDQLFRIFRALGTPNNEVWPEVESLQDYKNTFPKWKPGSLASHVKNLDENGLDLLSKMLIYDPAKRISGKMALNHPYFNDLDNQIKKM
T1 sequence (P14635 whole entry partner): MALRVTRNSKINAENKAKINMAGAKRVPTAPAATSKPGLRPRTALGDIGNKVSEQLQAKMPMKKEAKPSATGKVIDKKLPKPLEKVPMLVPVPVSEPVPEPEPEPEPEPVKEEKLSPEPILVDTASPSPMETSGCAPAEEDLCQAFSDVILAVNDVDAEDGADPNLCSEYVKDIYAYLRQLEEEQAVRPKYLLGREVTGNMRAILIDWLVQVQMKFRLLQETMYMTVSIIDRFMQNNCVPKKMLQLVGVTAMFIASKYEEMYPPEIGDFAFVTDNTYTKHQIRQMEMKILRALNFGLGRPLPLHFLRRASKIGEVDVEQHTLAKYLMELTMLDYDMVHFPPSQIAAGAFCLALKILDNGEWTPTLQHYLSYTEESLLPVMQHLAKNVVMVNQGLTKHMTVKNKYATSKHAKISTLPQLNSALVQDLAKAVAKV

IC50 [nM]	Structure (SMILES)
> 1000	CC(C)c1cnn2c(NCc3c(Cl)cccc3C(C)(C)O)nc(N3CCC(N)CC3)nc12 [Compound 239]

Biological target: T2, CDK2/Cyclin A (Homo sapiens, UniProt P24941)
T2 construct: purchased Invitrogen PV6290
Assay: Enzymatic assay for CDK2 (FRET based LANCE Ultra kinase assay)
Assay type: biochemical
Conditions: read-out: CDK2 enzymatic activity (IC50 range)
Method in brief: as §1

IC50 [nM]	Structure (SMILES)
> 1000	CC(C)c1cnn2c(NCc3c(Cl)cccc3C(C)(C)O)nc(N3CCC(N)CC3)nc12 [Compound 239]

Biological target: T3, CDK5/p25 (Homo sapiens, UniProt Q00535)
T3 construct: purchased Invitrogen PR8543B
Assay: Enzymatic assay for CDK5 (FRET based LANCE Ultra kinase assay)
Assay type: biochemical
Conditions: read-out: CDK5 enzymatic activity (IC50 range)
Method in brief: as §1

T3 sequence (Q00535 whole entry): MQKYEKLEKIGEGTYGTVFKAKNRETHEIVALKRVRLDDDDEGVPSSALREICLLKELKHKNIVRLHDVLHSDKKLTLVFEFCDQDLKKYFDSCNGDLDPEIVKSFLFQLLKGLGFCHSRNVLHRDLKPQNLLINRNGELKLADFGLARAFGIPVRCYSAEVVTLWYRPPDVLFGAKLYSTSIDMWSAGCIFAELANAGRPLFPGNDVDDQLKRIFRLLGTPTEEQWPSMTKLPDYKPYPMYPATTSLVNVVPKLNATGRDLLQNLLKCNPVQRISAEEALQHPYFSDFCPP
T3 sequence (Q15078 99-307 partner limits assumed): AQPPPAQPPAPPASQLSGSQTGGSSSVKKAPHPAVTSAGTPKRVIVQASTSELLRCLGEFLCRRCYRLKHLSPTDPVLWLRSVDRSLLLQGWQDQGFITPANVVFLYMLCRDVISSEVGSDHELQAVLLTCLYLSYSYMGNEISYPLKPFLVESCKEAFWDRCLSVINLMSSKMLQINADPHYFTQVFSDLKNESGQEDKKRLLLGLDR

IC50 [nM]	Structure (SMILES)
> 1000	CC(C)c1cnn2c(NCc3c(Cl)cccc3C(C)(C)O)nc(N3CCC(N)CC3)nc12 [Compound 239]

Biological target: T4, CDK7/Cyclin H/MNAT1 (Homo sapiens, UniProt P50613)
T4 construct: purchased Invitrogen PR6749B
Assay: Enzymatic assay for CDK7 (FRET based LANCE Ultra kinase assay)
Assay type: biochemical
Conditions: CDK7 over CDK1
Method in brief: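 LANCE Ultra TR-FRET kinase assay using a ULight-labeled peptide substrate and a Eu-labeled anti-phospho antibody, with ATP at its Km. Purified CDK/cyclin complex was added to compound after brief centrifugation.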

T4 sequence (P50613 whole entry): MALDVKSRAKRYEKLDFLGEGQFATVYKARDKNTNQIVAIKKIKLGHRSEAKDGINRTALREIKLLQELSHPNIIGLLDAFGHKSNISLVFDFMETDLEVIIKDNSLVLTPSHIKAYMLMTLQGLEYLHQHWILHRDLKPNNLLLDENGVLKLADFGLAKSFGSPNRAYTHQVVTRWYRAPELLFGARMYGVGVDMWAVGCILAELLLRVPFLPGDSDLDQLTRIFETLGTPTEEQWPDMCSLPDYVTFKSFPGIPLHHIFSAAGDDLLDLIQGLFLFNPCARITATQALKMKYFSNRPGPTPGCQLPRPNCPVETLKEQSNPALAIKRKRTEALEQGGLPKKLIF
T4 sequence (P51946 whole entry partner): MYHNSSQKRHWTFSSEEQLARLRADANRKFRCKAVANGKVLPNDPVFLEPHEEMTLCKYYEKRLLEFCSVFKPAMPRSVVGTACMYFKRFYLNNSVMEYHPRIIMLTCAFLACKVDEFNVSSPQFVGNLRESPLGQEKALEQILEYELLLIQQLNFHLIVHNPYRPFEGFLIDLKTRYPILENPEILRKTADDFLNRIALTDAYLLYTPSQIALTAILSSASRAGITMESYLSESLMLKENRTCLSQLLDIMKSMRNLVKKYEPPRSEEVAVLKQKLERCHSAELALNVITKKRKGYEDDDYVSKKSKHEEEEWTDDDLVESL
T4 sequence (P51948 whole entry partner): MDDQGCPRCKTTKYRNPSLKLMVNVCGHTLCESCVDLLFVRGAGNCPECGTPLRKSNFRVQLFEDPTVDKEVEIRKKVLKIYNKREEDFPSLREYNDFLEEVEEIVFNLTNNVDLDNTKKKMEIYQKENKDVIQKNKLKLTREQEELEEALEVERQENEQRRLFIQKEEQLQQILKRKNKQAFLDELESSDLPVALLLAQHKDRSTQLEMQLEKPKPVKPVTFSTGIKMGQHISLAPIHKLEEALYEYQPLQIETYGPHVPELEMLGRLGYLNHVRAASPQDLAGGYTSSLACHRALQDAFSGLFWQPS

CDK1/CDK7: Selectivity of CDK7 inhibition over CDK1 inhibition	Structure (SMILES)
A (A=greater than 200 fold)	CC(C)c1cnn2c(NCc3c(Cl)cccc3C(C)(C)O)nc(N3CCC(N)CC3)nc12 [Compound 239]

Same assay, conditions: CDK7 over CDK2

CDK2/CDK7: Selectivity of CDK7 inhibition over CDK2 inhibition	Structure (SMILES)
A (A=greater than 200 fold)	CC(C)c1cnn2c(NCc3c(Cl)cccc3C(C)(C)O)nc(N3CCC(N)CC3)nc12 [Compound 239]

Same assay, conditions: CDK7 over CDK5

CDK5/CDK7: Selectivity of CDK7 inhibition over CDK5 inhibition	Structure (SMILES)
A (A=greater than 200 fold)	CC(C)c1cnn2c(NCc3c(Cl)cccc3C(C)(C)O)nc(N3CCC(N)CC3)nc12 [Compound 239]

Same assay, conditions: read-out: CDK7 enzymatic activity (IC50 range)

IC50 [nM]	Structure (SMILES)
< 100	CC(C)c1cnn2c(NCc3c(Cl)cccc3C(C)(C)O)nc(N3CCC(N)CC3)nc12 [Compound 239]

Tested on: HCT116
Assay: Cellular HCT116 viability assay (CellTiter-Glo, 72 hours)
Assay type: cell-based
Conditions: Homo sapiens, HCT-116
Method in brief: (§2)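 Cells plated in 96 wells and exposed to compound 72 h at 37 °C, 5% CO2, final DMSO below 0.1%, DMSO control. Viability by CellTiter-Glo luminescence, duplicate.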

IC50 [nM]	Structure (SMILES)
1000 to 10000	CC(C)c1cnn2c(NCc3c(Cl)cccc3C(C)(C)O)nc(N3CCC(N)CC3)nc12 [Compound 239]

Tested on: H460
Assay: Cellular H460 viability assay (CellTiter-Glo, 72 hours)
Assay type: cell-based
Conditions: Homo sapiens, NCI-H460
Method in brief: as §2

Structure (SMILES)	IC50 [nM]
CN(C)c1cnn2c(NCc3ccccc3-n3cccn3)nc(N3CCC(N)CC3)nc12 [Compound 60]	< 1000
CC(C)c1cnn2c(NCc3c(Cl)cccc3C(C)(C)O)nc(N3CCC(N)CC3)nc12 [Compound 239]	1000 to 10000

Continued, values first:

IC50 [nM]	Structure (SMILES)
1000 to 10000	CC(C)c1cnn2c(NCc3ncccc3-n3cccn3)nc(N3CCC(N)CC3)nc12 [Compound 5]
< 1000	CC(C)c1cnn2c(NCc3ccncc3-n3cccn3)nc(N3CCC(N)CC3)nc12 [Compound 6]
< 1000	NC1CCN(c2nc(NCc3ccccc3-n3cccn3)n3ncc(C(F)(F)F)c3n2)CC1 [Compound 41]
< 1000	CC(C)c1cnn2c(NCc3ccccc3-c3ccco3)nc(N3CCC(N)CC3)nc12 [Compound 45]
< 1000	CC(C)c1cnn2c(NCc3ccccc3-n3ccc4ccccc43)nc(N3CCC(N)CC3)nc12 [Compound 68]

Tested on: MV4-11
Assay: Cellular MV4-11 viability assay (CellTiter-Glo, 72 hours)
Assay type: cell-based
Conditions: Homo sapiens
Method in brief: as §2

IC50 [nM]	Structure (SMILES)
1000 to 10000	CC(C)c1cnn2c(NCc3c(Cl)cccc3C(C)(C)O)nc(N3CCC(N)CC3)nc12 [Compound 239]

Tested on: MOLT-4
Assay: Cellular MOLT-4 viability assay (CellTiter-Glo, 72 hours)
Assay type: cell-based
Conditions: Homo sapiens, MOLT4 viability assay
Experimental: All cell lines were routinely tested for mycoplasma.
The effect of the CDK7 inhibitor to inhibit the growth of target cancer cells was evaluated through the 72 hours time period of viability assay. Briefly, the candidate cell line ware plated in 96 well plate at the following density of cells respectively. […] DMSO solvent without compound served as a control and final DMSO concentration less than 0.1%. After 72 hours of incubation at 37° C., 5% CO2 incubator, cells were analyzed for the viability using the CellTiter-Glo Luminescent Cell Viability Assay (Promega, Cat #G7570). All viability assays were performed in duplicate and Luminescence was read using an Envision (Perkin Elmer, USA). Data was analyzed using XLfit software.

Structure (SMILES)	IC50 [nM]
NC1CCN(c2nc(NCc3ccccc3-n3cccn3)n3ncc(F)c3n2)CC1 [Compound 37]	> 10000
CN(C)c1cnn2c(NCc3ccccc3-n3cccn3)nc(N3CCC(N)CC3)nc12 [Compound 60]	> 10000
CC(C)c1cnn2c(NCc3cccc(N4CCN(C(=O)CCCN(C)C)CC4)c3)nc(N3CCC(N)CC3)nc12 [Compound 85]	> 10000
CC(C)c1cnn2c(NCc3ccccc3-n3cccn3)nc(Oc3ccc(N4CCCC4)cc3)nc12 [Compound 162]	> 10000

More lines, now with the values ahead:

IC50 [nM]	Structure (SMILES)
> 10000	CC(C)c1cnn2c(NCc3ncccc3-n3cccn3)nc(N3CCC(N)CC3)nc12 [Compound 5]
> 10000	CC(C)c1cnn2c(NCc3ccncc3-n3cccn3)nc(N3CCC(N)CC3)nc12 [Compound 6]
> 10000	NC1CCN(c2nc(NCc3ccccc3-n3cccn3)n3ncc(C(F)(F)F)c3n2)CC1 [Compound 41]
1000 to 10000	CC(C)c1cnn2c(NCc3ccccc3-c3ccco3)nc(N3CCC(N)CC3)nc12 [Compound 45]
1000 to 10000	CC(C)c1cnn2c(NCc3ccccc3-n3ccc4ccccc43)nc(N3CCC(N)CC3)nc12 [Compound 68]
1000 to 10000	CC(C)c1cnn2c(NCc3ccccc3Oc3cccc(NC(=O)CCCN(C)C)c3)nc(N3CCC(N)CC3)nc12 [Compound 82]
1000 to 10000	CC(C)c1cnn2c(NCc3cccc(Oc4cccc(NC(=O)CCCN(C)C)c4)c3)nc(N3CCC(N)CC3)nc12 [Compound 84]
